Data taken from BindingDB's records for doi:10.1073/pnas.0606956103 (Targegen, 2006).

Assays:
Experiment in all cases: Determination of PI3K Activity
Details in all cases: pH 7.4; 22 °C
[1] = molecular target: Phosphatidylinositol 3-kinase regulatory subunit alpha/4,5-bisphosphate 3-kinase catalytic subunit delta isoform (Homo sapiens, UniProt O00329)
[2] = molecular target: Phosphatidylinositol 3-kinase regulatory subunit alpha/4,5-bisphosphate 3-kinase catalytic subunit alpha isoform (Homo sapiens, UniProt P42336)
[3] = molecular target: Phosphatidylinositol 3-kinase regulatory subunit alpha/4,5-bisphosphate 3-kinase catalytic subunit beta isoform (Homo sapiens, UniProt P42338)
Phosphatidylinositol 3-kinase regulatory subunit alpha/4,5-bisphosphate 3-kinase catalytic subunit beta isoform, sequence (P27986 whole entry, canonical isoform): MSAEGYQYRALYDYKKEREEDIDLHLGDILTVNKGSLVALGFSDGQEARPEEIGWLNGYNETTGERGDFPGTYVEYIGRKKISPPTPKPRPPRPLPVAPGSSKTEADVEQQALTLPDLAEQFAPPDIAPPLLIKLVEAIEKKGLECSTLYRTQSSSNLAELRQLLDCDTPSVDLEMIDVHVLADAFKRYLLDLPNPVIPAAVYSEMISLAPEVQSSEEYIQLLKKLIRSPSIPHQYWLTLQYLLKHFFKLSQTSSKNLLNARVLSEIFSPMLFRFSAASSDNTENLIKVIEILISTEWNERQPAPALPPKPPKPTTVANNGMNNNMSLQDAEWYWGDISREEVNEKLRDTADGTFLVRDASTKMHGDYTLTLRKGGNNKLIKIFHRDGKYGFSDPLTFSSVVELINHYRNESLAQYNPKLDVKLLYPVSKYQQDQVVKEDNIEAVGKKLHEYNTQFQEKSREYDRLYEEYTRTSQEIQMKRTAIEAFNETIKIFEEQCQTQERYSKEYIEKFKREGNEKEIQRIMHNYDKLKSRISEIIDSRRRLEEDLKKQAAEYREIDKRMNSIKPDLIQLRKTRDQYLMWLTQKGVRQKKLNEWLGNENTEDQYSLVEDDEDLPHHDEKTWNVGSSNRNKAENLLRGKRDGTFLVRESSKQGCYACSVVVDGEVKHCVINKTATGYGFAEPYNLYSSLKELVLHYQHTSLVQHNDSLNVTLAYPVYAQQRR
Phosphatidylinositol 3-kinase regulatory subunit alpha/4,5-bisphosphate 3-kinase catalytic subunit beta isoform, sequence (P42338 whole entry, canonical isoform): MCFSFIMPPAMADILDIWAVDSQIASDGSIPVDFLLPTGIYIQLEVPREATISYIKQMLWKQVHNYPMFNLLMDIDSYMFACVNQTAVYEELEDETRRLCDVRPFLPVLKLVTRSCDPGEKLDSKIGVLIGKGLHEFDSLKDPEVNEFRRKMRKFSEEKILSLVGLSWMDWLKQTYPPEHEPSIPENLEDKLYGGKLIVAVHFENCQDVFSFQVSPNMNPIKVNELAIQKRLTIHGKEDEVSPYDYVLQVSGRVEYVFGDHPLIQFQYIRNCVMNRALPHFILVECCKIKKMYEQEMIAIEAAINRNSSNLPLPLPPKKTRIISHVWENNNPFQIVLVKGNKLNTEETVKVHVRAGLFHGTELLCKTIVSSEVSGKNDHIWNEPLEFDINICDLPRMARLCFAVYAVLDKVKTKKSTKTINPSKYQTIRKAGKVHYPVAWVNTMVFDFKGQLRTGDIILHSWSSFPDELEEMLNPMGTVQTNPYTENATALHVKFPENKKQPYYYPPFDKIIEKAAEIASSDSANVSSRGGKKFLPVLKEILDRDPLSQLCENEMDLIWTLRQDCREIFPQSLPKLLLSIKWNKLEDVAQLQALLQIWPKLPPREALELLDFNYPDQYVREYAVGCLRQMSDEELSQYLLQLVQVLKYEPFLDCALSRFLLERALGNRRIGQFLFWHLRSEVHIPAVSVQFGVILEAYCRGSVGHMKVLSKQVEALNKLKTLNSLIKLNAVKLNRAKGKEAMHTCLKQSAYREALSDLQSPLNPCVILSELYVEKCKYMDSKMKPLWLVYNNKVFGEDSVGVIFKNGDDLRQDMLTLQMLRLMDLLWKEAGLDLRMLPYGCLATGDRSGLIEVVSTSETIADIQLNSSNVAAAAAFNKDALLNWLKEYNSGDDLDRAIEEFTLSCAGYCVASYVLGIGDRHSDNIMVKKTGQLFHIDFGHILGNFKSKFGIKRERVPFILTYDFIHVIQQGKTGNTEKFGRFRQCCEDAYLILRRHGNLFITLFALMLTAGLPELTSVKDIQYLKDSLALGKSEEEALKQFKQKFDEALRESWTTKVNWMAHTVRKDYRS

Phosphatidylinositol 3-kinase regulatory subunit alpha/4,5-bisphosphate 3-kinase catalytic subunit delta isoform, sequence (P27986 whole entry, canonical isoform): as the sequence (P27986 whole entry, canonical isoform) above
Phosphatidylinositol 3-kinase regulatory subunit alpha/4,5-bisphosphate 3-kinase catalytic subunit delta isoform, sequence (O00329 whole entry, canonical isoform): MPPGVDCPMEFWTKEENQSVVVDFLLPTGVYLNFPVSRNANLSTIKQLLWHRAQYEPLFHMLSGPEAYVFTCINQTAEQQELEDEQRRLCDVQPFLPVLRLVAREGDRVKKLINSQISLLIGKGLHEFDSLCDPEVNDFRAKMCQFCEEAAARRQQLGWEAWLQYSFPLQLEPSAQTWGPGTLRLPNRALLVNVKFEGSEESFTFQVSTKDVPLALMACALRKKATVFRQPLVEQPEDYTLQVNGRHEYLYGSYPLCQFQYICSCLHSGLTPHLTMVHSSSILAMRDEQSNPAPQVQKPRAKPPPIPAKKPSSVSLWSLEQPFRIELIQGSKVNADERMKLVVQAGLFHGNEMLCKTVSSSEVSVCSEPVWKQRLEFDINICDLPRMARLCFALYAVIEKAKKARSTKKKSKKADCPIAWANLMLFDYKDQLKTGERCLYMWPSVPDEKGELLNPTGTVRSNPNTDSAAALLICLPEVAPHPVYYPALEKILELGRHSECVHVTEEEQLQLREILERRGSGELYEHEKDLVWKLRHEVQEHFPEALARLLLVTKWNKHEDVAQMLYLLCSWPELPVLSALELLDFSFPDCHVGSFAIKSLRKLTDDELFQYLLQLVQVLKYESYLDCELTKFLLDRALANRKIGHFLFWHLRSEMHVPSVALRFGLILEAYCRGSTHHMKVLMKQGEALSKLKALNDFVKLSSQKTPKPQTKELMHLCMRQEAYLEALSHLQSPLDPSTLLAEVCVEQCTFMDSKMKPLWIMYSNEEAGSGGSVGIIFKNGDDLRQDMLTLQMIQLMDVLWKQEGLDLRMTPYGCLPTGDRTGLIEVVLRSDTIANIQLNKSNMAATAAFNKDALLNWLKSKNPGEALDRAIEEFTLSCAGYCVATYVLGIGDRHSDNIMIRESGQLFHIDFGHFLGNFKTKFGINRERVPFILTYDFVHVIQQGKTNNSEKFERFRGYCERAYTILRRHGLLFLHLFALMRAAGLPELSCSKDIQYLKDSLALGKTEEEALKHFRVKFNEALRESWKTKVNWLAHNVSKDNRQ
Phosphatidylinositol 3-kinase regulatory subunit alpha/4,5-bisphosphate 3-kinase catalytic subunit alpha isoform, sequence (P27986 whole entry, canonical isoform): as the sequence (P27986 whole entry, canonical isoform) above
Phosphatidylinositol 3-kinase regulatory subunit alpha/4,5-bisphosphate 3-kinase catalytic subunit alpha isoform, sequence (P42336 whole entry, canonical isoform): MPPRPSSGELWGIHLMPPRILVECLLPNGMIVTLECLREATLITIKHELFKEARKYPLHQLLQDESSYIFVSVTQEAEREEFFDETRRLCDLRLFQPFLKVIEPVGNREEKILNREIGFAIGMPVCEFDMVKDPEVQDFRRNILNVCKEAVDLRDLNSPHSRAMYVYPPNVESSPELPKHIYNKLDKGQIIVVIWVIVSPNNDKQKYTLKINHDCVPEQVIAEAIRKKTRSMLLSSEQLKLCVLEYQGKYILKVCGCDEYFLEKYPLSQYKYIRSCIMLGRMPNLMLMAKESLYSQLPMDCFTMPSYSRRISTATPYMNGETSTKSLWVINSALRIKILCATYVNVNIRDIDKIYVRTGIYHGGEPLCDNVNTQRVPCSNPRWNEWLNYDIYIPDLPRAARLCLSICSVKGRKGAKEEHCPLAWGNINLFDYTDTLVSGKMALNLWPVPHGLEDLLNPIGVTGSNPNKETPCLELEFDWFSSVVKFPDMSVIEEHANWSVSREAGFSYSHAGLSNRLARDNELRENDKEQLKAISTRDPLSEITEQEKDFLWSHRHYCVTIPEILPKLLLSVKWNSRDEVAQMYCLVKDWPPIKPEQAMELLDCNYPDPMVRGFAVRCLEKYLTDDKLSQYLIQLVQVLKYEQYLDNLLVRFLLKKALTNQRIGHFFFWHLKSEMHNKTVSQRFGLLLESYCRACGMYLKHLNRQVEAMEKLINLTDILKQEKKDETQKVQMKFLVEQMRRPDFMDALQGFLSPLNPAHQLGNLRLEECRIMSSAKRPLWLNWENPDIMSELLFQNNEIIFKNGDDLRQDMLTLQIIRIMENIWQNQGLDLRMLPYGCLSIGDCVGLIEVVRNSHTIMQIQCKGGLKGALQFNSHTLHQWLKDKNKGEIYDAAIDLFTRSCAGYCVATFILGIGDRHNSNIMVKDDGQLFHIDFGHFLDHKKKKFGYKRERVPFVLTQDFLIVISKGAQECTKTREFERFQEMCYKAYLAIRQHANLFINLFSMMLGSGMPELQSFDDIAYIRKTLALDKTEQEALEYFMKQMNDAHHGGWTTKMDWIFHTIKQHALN

IC50 [1] [µM] | IC50 [2] [µM] | IC50 [3] [µM] | SMILES
0.561 |  |  | O=c1cc(N2CCOCC2)oc2c(-c3ccccc3)cccc12
0.064 | 1.2 | 0.107 | Nc1nc(N)c2nc(-c3cccc4[nH]ccc34)cnc2n1 [6-(1H-indol-4-yl)pteridine-2,4-diamine]
